According to ChEMBL document CHEMBL3608254, “Discovery of novel triazolobenzazepinones as γ-secretase modulators with central Aβ42 lowering in rodents and rhesus monkeys” (Bioorg Med Chem Lett, 2015):
Values after ≈ are worked out from the molar mass of the structure shown. Values belong to the compound of their own block, whether it stands above or below them. Active and inactive are the calls of the source. The calls are words filed in the database; no cut-off is given here.

Columns and labels:
Gamma-secretase [1] = assay: Inhibition of gamma-secretase in human SH-SY5Y cells expressing beta-APP C-terminal fragment SPA4CT assessed as decrease of amyloid beta-40 level by electrochemiluminescent method; format: cell-based
Gamma-secretase [2] = assay: Inhibition of gamma-secretase in human SH-SY5Y cells expressing beta-APP C-terminal fragment SPA4CT assessed as decrease of amyloid beta-42 level by electrochemiluminescent method; format: cell-based
[3] = Inhibition of gamma-secretase-mediated cleavage of NotchdeltaE in human HeLa cells expressing NotchdeltaE assessed as intracellular release of Notch intracellular domain (NICD)/N-terminal luciferase by luminescent method; format: cell-based
[4] = molecular target: T1, Voltage-gated inwardly rectifying potassium channel KCNH2 (Homo sapiens, UniProt Q12809)
T1 sequence (Q12809 whole entry): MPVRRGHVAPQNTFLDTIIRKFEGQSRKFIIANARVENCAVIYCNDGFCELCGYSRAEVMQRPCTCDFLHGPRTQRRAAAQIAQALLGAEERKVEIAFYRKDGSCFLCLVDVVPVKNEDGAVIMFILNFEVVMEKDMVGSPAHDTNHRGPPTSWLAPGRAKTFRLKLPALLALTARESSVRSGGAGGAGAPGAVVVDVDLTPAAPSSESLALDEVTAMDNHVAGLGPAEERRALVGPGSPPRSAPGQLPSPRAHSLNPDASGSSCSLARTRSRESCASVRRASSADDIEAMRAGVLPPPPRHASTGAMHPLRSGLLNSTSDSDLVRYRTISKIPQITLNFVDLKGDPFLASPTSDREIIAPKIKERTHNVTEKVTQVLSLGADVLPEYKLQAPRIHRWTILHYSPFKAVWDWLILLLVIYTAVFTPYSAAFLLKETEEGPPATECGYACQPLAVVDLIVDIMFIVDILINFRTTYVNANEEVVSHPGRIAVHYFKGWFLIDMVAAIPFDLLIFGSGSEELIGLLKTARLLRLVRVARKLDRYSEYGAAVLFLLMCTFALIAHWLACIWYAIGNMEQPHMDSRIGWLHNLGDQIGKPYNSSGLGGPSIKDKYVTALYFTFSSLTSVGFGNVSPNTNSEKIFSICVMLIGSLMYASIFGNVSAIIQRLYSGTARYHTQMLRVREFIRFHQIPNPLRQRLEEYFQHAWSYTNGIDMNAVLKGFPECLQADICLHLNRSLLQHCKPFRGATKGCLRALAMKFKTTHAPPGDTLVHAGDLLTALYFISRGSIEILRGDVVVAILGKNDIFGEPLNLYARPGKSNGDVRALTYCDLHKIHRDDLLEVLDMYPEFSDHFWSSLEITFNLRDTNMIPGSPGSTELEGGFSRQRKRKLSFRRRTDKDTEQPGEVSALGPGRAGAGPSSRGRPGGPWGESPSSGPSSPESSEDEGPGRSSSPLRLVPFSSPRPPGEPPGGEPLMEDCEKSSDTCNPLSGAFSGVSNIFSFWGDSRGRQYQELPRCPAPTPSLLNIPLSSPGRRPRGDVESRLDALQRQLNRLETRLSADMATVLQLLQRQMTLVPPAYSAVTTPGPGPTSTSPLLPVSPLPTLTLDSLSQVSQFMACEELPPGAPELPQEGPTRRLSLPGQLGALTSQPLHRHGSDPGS
Description: Binding affinity to human ERG expressed in HEK cells by MK-499 radioligand displacement assay

Mus musculus = assay: Antialzheimer's disease activity in po dosed APP-YAC transgenic mouse assessed as reduction of amyloid beta-40/42 level in brain measured after 6 hrs; format: functional
Rattus norvegicus [5] = assay: Antialzheimer's disease activity in po dosed Sprague-Dawley rat assessed as reduction of amyloid beta-40/42 level in brain measured after 6 hrs; format: functional
[6] = molecular target: Sodium-dependent serotonin transporter (Homo sapiens, UniProt P31645); assay: Inhibition of SERT (unknown origin)
[7] = Half life in rat liver microsomes; format: ADME
[8] = Half life in rhesus monkey hepatocytes; format: ADME, cell-based, Macaca mulatta, Hepatocyte
[9] = AUC in cerebrospinal fluid of rhesus monkey cisterna-magna-ported model at 6 mg/kg bolus dose followed by 4 hrs infusion of 44 mg/kg, iv; format: ADME, organism-based, Macaca mulatta
[10] = Fraction unbound in human; format: ADME, organism-based; conditions: in vivo
[11] = Volume of distribution at steady state in dog at 0.25 mg/kg, iv and 0.5 mg/kg, po; format: ADME, organism-based, Canis lupus familiaris; conditions: in vivo, read-out: Vdss
[12] = Volume of distribution at steady state in Sprague-Dawley rat at 1 mg/kg, iv and 2 mg/kg, po; format: ADME, organism-based; conditions: in vivo, read-out: Vdss
[13] = Volume of distribution at steady state in rhesus monkey at 0.25 mg/kg, iv and 0.5 mg/kg, po; format: ADME, organism-based, Macaca mulatta; conditions: in vivo, read-out: Vdss
[14] = Solubility of the compound at pH 2; format: physicochemical; conditions: buffer
[15] = Half life in rat hepatocytes; format: ADME, cell-based, Hepatocyte
[16] = Fraction unbound in dog; format: ADME, organism-based, Canis lupus familiaris; conditions: in vivo
CYP2C9 = CYP2C9 (Homo sapiens, UniProt P11712); assay: Inhibition of CYP2C9 (unknown origin) at 10 uM; format: ADME
Chain of CYP2C9 (P11712 whole entry): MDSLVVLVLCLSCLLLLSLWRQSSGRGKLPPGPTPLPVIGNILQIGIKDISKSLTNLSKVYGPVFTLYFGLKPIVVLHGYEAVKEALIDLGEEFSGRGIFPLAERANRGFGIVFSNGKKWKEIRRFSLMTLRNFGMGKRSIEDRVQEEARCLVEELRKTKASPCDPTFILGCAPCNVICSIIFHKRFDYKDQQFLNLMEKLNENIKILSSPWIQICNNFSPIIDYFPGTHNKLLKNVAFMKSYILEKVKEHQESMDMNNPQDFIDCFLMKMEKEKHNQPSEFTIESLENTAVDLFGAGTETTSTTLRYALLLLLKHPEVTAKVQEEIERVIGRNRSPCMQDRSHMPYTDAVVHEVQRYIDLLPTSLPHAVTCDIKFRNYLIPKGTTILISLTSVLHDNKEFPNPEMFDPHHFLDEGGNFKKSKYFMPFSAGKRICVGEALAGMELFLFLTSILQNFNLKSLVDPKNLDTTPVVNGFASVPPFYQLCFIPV

Canis familiaris = assay: Dose normalized AUC (0 to 24 hrs) in dog at 0.5 mg/kg, po; format: ADME, organism-based, Canis lupus familiaris; conditions: in vivo
[17] = Solubility of the compound at pH 7; format: physicochemical; conditions: buffer
[18] = Half life in human hepatocytes; format: ADME, cell-based, Hepatocyte
Rhesus monkey [19] = assay: Antialzheimer's disease activity in rhesus monkey cisterna-magna-ported model assessed as reduction of amyloid beta-40 level in CSF at 6 mg/kg bolus dose followed by 4 hrs infusion of 44 mg/kg, iv measured up to 20 hrs; format: functional, organism-based; conditions: Macaca mulatta
[20] = Plasma clearance in Sprague-Dawley rat at 1 mg/kg, iv and 2 mg/kg, po; format: ADME, organism-based
Rattus norvegicus [21] = assay: Dose normalized AUC (0 to 24 hrs) in Sprague-Dawley rat at 2 mg/kg, po; format: ADME, organism-based; conditions: in vivo
[22] = molecular target: T1, Voltage-gated inwardly rectifying potassium channel KCNH2; assay: Inhibition of human ERG expressed in HEK cells assessed as reduction in IKr current by patchXpress assay; format: cell-based, HEK293
[23] = Oral bioavailability in rhesus monkey at 0.5 mg/kg; format: ADME, organism-based, Macaca mulatta; conditions: in vivo
[24] = Drug level in Sprague-Dawley rat brain at 100 mg/kg, po after 6 hrs; format: ADME, organism-based; conditions: read-out: Drug uptake
Rattus norvegicus [25] = assay: Dose normalized AUC in Wistar-Han rat at 100 mg/kg, po; format: ADME, organism-based; conditions: in vivo
Rhesus monkey [26] = assay: Antialzheimer's disease activity in rhesus monkey cisterna-magna-ported model assessed as reduction of amyloid beta-42 level in CSF at 6 mg/kg bolus dose followed by 4 hrs infusion of 44 mg/kg, iv measured up to 20 hrs; format: functional, organism-based; conditions: Macaca mulatta
[27] = Half life in dog at 0.25 mg/kg, iv; format: ADME, organism-based, Canis lupus familiaris; conditions: in vivo
[28] = Lipophilicity, log D of the compound; format: physicochemical; conditions: octanol/water
[29] = Half life in dog hepatocytes; format: ADME, cell-based, Canis lupus familiaris, Hepatocyte
Rattus norvegicus [30] = assay: Antialzheimer's disease activity in Sprague-Dawley rat assessed as reduction of amyloid beta-42 level in brain at 100 mg/kg, po after 6 hrs relative to control; format: functional
[31] = molecular target: T2, Nuclear receptor subfamily 1 group I member 2 (Homo sapiens, UniProt O75469); assay: Activation of PXR (unknown origin); format: ADME
T2 sequence (O75469 whole entry): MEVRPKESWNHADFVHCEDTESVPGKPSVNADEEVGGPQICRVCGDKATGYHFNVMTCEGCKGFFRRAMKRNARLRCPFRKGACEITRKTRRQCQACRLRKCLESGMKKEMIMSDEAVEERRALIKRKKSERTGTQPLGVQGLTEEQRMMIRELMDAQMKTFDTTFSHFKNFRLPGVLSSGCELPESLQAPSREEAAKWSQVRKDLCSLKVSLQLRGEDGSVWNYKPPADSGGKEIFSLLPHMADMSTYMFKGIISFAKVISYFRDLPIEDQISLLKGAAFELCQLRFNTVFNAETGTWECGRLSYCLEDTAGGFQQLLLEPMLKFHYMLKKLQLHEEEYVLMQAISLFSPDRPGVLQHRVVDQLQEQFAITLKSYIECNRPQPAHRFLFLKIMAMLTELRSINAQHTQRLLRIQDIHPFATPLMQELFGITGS

[32] = Fraction unbound in rat; format: ADME, organism-based; conditions: in vivo
Rattus norvegicus [33] = assay: Oral bioavailability in Sprague-Dawley rat at 2 mg/kg; format: ADME, organism-based; conditions: in vivo
Plasma = assay: AUC in plasma of rhesus monkey cisterna-magna-ported model at 6 mg/kg bolus dose followed by 4 hrs infusion of 44 mg/kg, iv; format: ADME, organism-based, Macaca mulatta; conditions: in vivo
CYP3A4 [34] = molecular target: T3, CYP3A4 (Homo sapiens, UniProt P08684); assay: Time dependent inhibition of CYP3A4 (unknown origin) at 50 uM; format: ADME
T3 sequence (P08684 whole entry): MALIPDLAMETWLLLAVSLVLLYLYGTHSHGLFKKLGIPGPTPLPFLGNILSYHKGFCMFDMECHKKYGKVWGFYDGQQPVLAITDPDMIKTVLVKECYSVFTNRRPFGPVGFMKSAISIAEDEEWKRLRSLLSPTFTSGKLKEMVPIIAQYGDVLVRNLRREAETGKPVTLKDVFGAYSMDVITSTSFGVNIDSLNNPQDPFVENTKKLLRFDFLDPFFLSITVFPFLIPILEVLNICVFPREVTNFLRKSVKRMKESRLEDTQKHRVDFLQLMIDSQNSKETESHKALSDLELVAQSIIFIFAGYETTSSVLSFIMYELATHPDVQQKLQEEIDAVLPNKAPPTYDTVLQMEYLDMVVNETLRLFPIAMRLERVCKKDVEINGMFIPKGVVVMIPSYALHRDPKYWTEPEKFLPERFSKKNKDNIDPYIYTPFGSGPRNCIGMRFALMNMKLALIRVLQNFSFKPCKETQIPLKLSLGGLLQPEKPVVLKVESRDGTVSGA

[35] = Half life in Sprague-Dawley rat at 1 mg/kg, iv; format: ADME, organism-based; conditions: in vivo
[36] = Fraction unbound in rhesus monkey; format: ADME, organism-based, Macaca mulatta; conditions: in vivo
[37] = Oral bioavailability in dog at 0.5 mg/kg; format: ADME, organism-based, Canis lupus familiaris; conditions: in vivo
[38] = Half life in rhesus monkey at 0.25 mg/kg, iv; format: ADME, organism-based, Macaca mulatta; conditions: in vivo
[39] = Apparent permeability of the compound in pig LLC-PK1 cells; format: ADME, cell-based, Sus scrofa
CYP3A4 [40] = molecular target: T3, CYP3A4; assay: Inhibition of CYP3A4 (unknown origin) at 10 uM; format: ADME
[41] = Plasma clearance in dog at 0.25 mg/kg, iv and 0.5 mg/kg, po; format: ADME, organism-based, Canis lupus familiaris
CYP2D6 = CYP2D6 (Homo sapiens, UniProt P10635); assay: Inhibition of CYP2D6 (unknown origin) at 10 uM; format: ADME
Chain of CYP2D6 (P10635 whole entry): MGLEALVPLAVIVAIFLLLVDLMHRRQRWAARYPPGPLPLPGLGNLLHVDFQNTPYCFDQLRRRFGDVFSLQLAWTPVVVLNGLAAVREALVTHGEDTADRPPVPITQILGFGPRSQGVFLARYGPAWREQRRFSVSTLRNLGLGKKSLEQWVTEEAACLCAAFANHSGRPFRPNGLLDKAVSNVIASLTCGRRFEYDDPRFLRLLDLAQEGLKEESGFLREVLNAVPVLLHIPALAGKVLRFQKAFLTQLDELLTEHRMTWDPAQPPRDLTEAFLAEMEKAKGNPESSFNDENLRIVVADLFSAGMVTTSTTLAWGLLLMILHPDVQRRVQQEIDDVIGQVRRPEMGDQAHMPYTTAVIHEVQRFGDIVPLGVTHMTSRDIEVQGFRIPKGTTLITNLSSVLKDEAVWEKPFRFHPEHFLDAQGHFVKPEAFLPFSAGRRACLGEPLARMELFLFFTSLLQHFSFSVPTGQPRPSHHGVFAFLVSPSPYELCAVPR

IC50 (Gamma-secretase [1]): 2010 nM
IC50 (Gamma-secretase [2]): 240 nM
IC50 [3]: > 50000 nM
SMILES: COc1cc(-c2cn(C3CCc4ccccc4N(Cc4ccccc4)C3=O)nn2)ccc1-n1cnc(C)c1 (racemic)

IC50 (Gamma-secretase [1]): 240 nM
IC50 (Gamma-secretase [2]): 60 nM
IC50 [3]: 28400 nM
SMILES: COc1cc(-c2cn(C3CSc4ccccc4N(CC(F)(F)F)C3=O)nn2)ccc1-n1cnc(C)c1 (stereo not drawn)
IC50 [4]: 4750 nM
Activity (Mus musculus): Active
Activity (Rattus norvegicus [5]): Active

IC50 (Gamma-secretase [1]): 3140 nM
IC50 (Gamma-secretase [2]): 440 nM
IC50 [3]: > 50000 nM
SMILES: COc1cc(-c2cn(C3CCc4ccccc4N(CCF)C3=O)nn2)ccc1-n1cnc(C)c1 (stereo not drawn)

IC50 (Gamma-secretase [1]): 3080 nM
IC50 (Gamma-secretase [2]): 430 nM
IC50 [3]: > 50000 nM
SMILES: COc1cc(-c2cn(C3CCc4ccccc4N(C)C3=O)nn2)ccc1-n1cnc(C)c1 (stereo not drawn)

IC50 (Gamma-secretase [1]): 470 nM
inhibition [6]: inactive
IC50 (Gamma-secretase [2]): 70 nM
IC50 [3]: > 50000 nM
SMILES: COc1cc(-c2cn(C3CC[C@@H]4CCCC[C@H]4N(Cc4ccccc4)C3=O)nn2)ccc1-n1cnc(C)c1 (stereo partly drawn)
Activity (Mus musculus): Active
Activity (Rattus norvegicus [5]): Active

IC50 (Gamma-secretase [1]): 1340 nM
IC50 (Gamma-secretase [2]): 180 nM
IC50 [3]: > 50000 nM
SMILES: COc1cc(-c2cn(C3CCc4cccnc4N(CC(F)(F)F)C3=O)nn2)ccc1-n1cnc(C)c1 (stereo not drawn)
IC50 [4]: 8740 nM
Activity (Mus musculus): Active
Activity (Rattus norvegicus [5]): Active

IC50 (Gamma-secretase [1]): 320 nM
half-life [7]: 35 min
IC50 (Gamma-secretase [2]): 70 nM
IC50 [3]: > 50000 nM
SMILES: COc1cc(-c2cn(C3CCc4ccccc4N(CC(F)(F)F)C3=O)nn2)ccc1-n1cnc(C)c1 (stereo not drawn)

IC50 (Gamma-secretase [1]): 3980 nM
IC50 (Gamma-secretase [2]): 370 nM
IC50 [3]: 25600 nM
SMILES: COc1cc(-c2cn(C3CCc4ccccc4N(CC4CC4)C3=O)nn2)ccc1-n1cnc(C)c1 (stereo not drawn)

IC50 (Gamma-secretase [1]): 700 nM
IC50 (Gamma-secretase [2]): 150 nM
IC50 [3]: > 50000 nM
SMILES: COc1cc(-c2cn(C3CCc4ccccc4N(CC(F)F)C3=O)nn2)ccc1-n1cnc(C)c1 (stereo not drawn)

half-life [8]: 49 min
AUC at 4 h [9]: 2.2 µM·h
fraction unbound [10]: 0.036
Vd [11]: 14 L/kg
Vd [12]: 4.8 L/kg
Vd [13]: 2 L/kg
solubility [14]: 180 µM (≈ 92.6 µg/mL)
half-life [15]: 36 min
fraction unbound [16]: 0.058
inhibition at 10 µM (CYP2C9): 68%
AUCt/dose (Canis familiaris): 0.1 µM·kg·h/mg
solubility [17]: 5.6 µM (≈ 2.88 µg/mL)
half-life [18]: 61 min
clearance [20]: 38 mL/min/kg
AUCt/dose (Rattus norvegicus [21]): 1.6 µM·kg·h/mg
bioavailability [23]: < 5%
IC50 [6]: 32 nM
concentration at 6 h [24]: 35 µM
AUC/dose (Rattus norvegicus [25]): 8.8 µM·kg·h/mg
half-life [27]: 372 min
logD [28]: 3.3
half-life [29]: 67 min
EC50 [31]: > 30000 nM
fraction unbound [32]: 0.037
F (Rattus norvegicus [33]): 190%
AUC (Plasma): 183 µM·h
inhibition at 50 µM (CYP3A4 [34]): 18%
half-life [35]: 48 min
IC50 [3]: 39800 nM
fraction unbound [36]: 0.057
bioavailability [37]: < 5%
half-life [38]: 72 min
Papp [39]: 25 ×10⁻⁶ cm/s
inhibition at 10 µM (CYP3A4 [40]): 42%
clearance [41]: 82 mL/min/kg
inhibition at 10 µM (CYP2D6): 28%
SMILES: COc1cc(-c2cn(C3CCc4c(F)cccc4N(CC(F)(F)F)C3=O)nn2)ccc1-n1cnc(C)c1 (stereo not drawn) [GSM1]
IC50 [4]: 2610 nM
ED50 (Mus musculus): 15 mg/kg
ED50 (Rattus norvegicus [5]): 15 mg/kg
Activity (Rhesus monkey [19]): inactive
IC50 [22]: 12900 nM
Activity (Rhesus monkey [26]): Active
inhibition in vivo at 100 mg/kg (Rattus norvegicus [30]): 92%

IC50 (Gamma-secretase [1]): 4720 nM
IC50 (Gamma-secretase [2]): 390 nM
IC50 [3]: 33000 nM
SMILES: COc1cc(-c2cn(C3CCc4ccccc4NC3=O)nn2)ccc1-n1cnc(C)c1 (stereo not drawn)
